Measured values published in patent publication US20180256595A1, “AGENT FOR ENHANCING OCULAR HYPOTENSIVE EFFECT” (KOWA COMPANY, LTD., priority 2015, published 2018).

Experiment: Multi-center open-label study: continuous ocular instillation of 0.4% ripasudil ophthalmic solution twice daily for 52 weeks, change in intra-ocular pressure
Format: in vivo, patients
Description: A multi-center open-label study was performed using a cohort for a monotherapy of ripasudil ophthalmic solution (173 cases) and a cohort for an additive therapy of a ripasudil ophthalmic solution in combination with another agent (181 cases) (additive therapy to a PG related drug: 62 cases, additive therapy to a β blocker: 60 cases, additive therapy to a combination drug of said PG-related drug and said β blocker: 59 cases). Patients with primary open angle glaucoma, ocular hypertension, and exfoliation glaucoma (one type of secondary glaucoma to cause aqueous humor outflow resistance due to exfoliation substances in aqueous humor or the like) having a pre-treatment intra-ocular pressure of 15 mmHg or higher or a post-treatment intra-ocular pressure of 15 mmHg or higher at the time after treatment of a PG-related drug, a β-blocker, or a combination drug of the PG-related drug and β-blocker were enrolled. A 0.4% ripasudil ophthalmic solution was dropped into an eye twice daily for 52 weeks. In order to evaluate intra-ocular pressure-lowering effect over time caused by long-term ocular instillation, the amount of change in intra-ocular pressure (least mean square value) in a second half of ocular instillation (32 weeks to 52 weeks) with respect to a first half of ocular instillation (4 weeks to 28 weeks) was examined. Statistical analysis was performed using SAS (SAS Inc., Cary, N.C.) by a least squares method based on a mixed effect model.

[1] = 2 hours after ocular instillation, baseline intra-ocular pressure 15≤ to <18 mmHg
[2] = 2 hours after ocular instillation, baseline intra-ocular pressure 18≤ to <−21 mmHg
[3] = 2 hours after ocular instillation, baseline intra-ocular pressure 21≤ mmHg
[4] = 2 hours after ocular instillation, whole cohort, least mean square value ± SE
[5] = before ocular instillation (immediately before ocular instillation in the morning), whole cohort, least mean square value ± SE
[6] = before ocular instillation, baseline intra-ocular pressure 15≤ to <18 mmHg
[7] = before ocular instillation, baseline intra-ocular pressure 18≤ to <−21 mmHg
[8] = before ocular instillation, baseline intra-ocular pressure 21≤ mmHg

Structure (SMILES): C[C@H]1CNCCCN1S(=O)(=O)c1cccc2cncc(F)c12 [Ripasudil only, (S)-(−)-1-(4-fluoro-5-isoquinolinesulfonyl)-2-methyl-1,4-homopiperazine]
- Change from the baseline intra-ocular pressure First half (Week 4-28) [1]: −2.86 ± 0.24 mmHg
- Change from the baseline intra-ocular pressure Second half (Week 32-52) [1]: −3.35 ± 0.25 mmHg
- Difference (second half with respect to first half) [1]: −0.49 ± 0.12 mmHg
- Change from the baseline intra-ocular pressure First half (Week 4-28) [2]: −3.24 ± 0.22 mmHg
- Change from the baseline intra-ocular pressure Second half (Week 32-52) [2]: −3.71 ± 0.22 mmHg
- Difference (second half with respect to first half) [2]: −0.47 ± 0.11 mmHg
- Change from the baseline intra-ocular pressure First half (Week 4-28) [3]: −3.55 ± 0.40 mmHg
- Change from the baseline intra-ocular pressure Second half (Week 32-52) [3]: −4.39 ± 0.41 mmHg
- Difference (second half with respect to first half) [3]: −0.84 ± 0.17 mmHg
- Difference (second half with respect to first half) (2 hours after ocular instillation, whole cohort): −0.58 ± 0.08 mmHg
- Change from the baseline intra-ocular pressure First half (Week 4-28) [4]: −3.23 ± 0.17 mmHg
- Change from the baseline intra-ocular pressure Second half (Week 32-52) [4]: −3.81 ± 0.17 mmHg
- Change from the baseline intra-ocular pressure Second half (Week 32-52) (2 hours after ocular instillation, whole cohort, least mean square value ± SE, listed as ripasudil): −3.81 mmHg
- Difference (second half with respect to first half) (2 hours after ocular instillation, whole cohort, listed as ripasudil): −0.58 mmHg
- Difference (second half with respect to first half) (before ocular instillation (immediately before ocular instillation in the morning), whole cohort): −0.49 ± 0.07 mmHg
- Change from the baseline intra-ocular pressure First half (Week 4-28) [5]: −2.12 ± 0.15 mmHg
- Change from the baseline intra-ocular pressure Second half (Week 32-52) [5]: −2.61 ± 0.15 mmHg
- Change from the baseline intra-ocular pressure Second half (Week 32-52) (before ocular instillation (immediately before ocular instillation in the morning), whole cohort, least mean square value ± SE, listed as ripasudil): −2.61 mmHg
- Difference (second half with respect to first half) (before ocular instillation (immediately before ocular instillation in the morning), whole cohort, listed as ripasudil): −0.49 mmHg
- Change from the baseline intra-ocular pressure First half (Week 4-28) [6]: −1.30 ± 0.25 mmHg
- Change from the baseline intra-ocular pressure Second half (Week 32-52) [6]: −1.70 ± 0.26 mmHg
- Difference (second half with respect to first half) [6]: −0.40 ± 0.12 mmHg
- Change from the baseline intra-ocular pressure First half (Week 4-28) [7]: −2.38 ± 0.16 mmHg
- Change from the baseline intra-ocular pressure Second half (Week 32-52) [7]: −2.66 ± 0.17 mmHg
- Difference (second half with respect to first half) [7]: −0.28 ± 0.11 mmHg
- Change from the baseline intra-ocular pressure First half (Week 4-28) [8]: −2.52 ± 0.34 mmHg
- Change from the baseline intra-ocular pressure Second half (Week 32-52) [8]: −3.42 ± 0.35 mmHg
- Difference (second half with respect to first half) [8]: −0.91 ± 0.16 mmHg
- Difference (second half with respect to first half) (before ocular instillation, baseline intra-ocular pressure 21≤ mmHg, listed as ripasudil): −0.91 mmHg
- intra-ocular pressure-lowering effect on long-term continuous administration (in words) (long-term continuous ocular instillation): exhibited a further intra-ocular pressure-lowering effect by continuous ocular instillation
